The test system of the assay is Triton WR 1339 induced dyslipidemia in Albino rats (Sprague Dawley strain). Put plainly: Hypolipidemic activity of enriched amla seed extract, Triton WR 1339 model (Example 28). It is filed as in vivo, rat. How it is done:
Fifty two male Albino rats (Sprague Dawley strain) weighing approximately 250-300 gm were selected for the study. The animals were maintained at temperature of 24±2° C., 65% relative humidity and 12 hr light/dark cycle. The rats were acclimatized for two weeks and during this period they had access to standard pellet diet and water ad libitum. After two weeks of acclimatization, all the rats were fasted overnight before injecting Triton WR 1339 (Tyloxapol) and administration of test extracts/standard. The animals were divided into thirteen groups. Following treatment was given to overnight fasted rats: • Group I: Normal control (vehicle only). • Group II: Triton WR 1339 (300 mg/kg, intraperitoneal). • Group III: Triton WR 1339 (300 mg/kg, intraperitoneal) followed by administering sample 1 of Amla seed extract prepared as per example 27 on the same day of triton administration (0.5 mg/kg, per oral). • Group IV: Triton WR 1339 (300 mg/kg, intraperitoneal) followed by Amla seed extract prepared as per example 1 (0.5 mg/kg, per oral). • Group V: Triton WR 1339 (300 mg/kg, intraperitoneal) followed by sample 2 which is a 1:1 combination of amla seed extract (sample 1) prepared as per example 27 and product 1 (Hexane fraction) of amla seed extract prepared as per example 13 on the same day that Triton was administered (0.5 mg/kg, per oral). • Group VI: Triton WR 1339 (300 mg/kg, intraperitoneal) followed by administering product of amla seed extract (product 3) prepared as per example 13 on the same day of triton administration (0.5 mg/kg, per oral). • Group VII: Triton WR 1339 (300 mg/kg, intraperitoneal) followed by product 2 (50% methanol fraction+80% methanol fraction+water fraction) of amla seed extract prepared as per example 13 on the same day that triton was administered (0.5 mg/kg, per oral). • Group VIII: Triton WR 1339 (300 mg/kg, intraperitoneal) followed by product 1 (hexane fraction) of amla seed extract prepared as per example 13 on the same day that triton was administered (0.5 mg/kg, per oral). • Group IX: Triton WR 1339 (300 mg/kg, intraperitoneal) followed by water extract of dried amla seed powder prepared as per example 8 (0.5 mg/kg, per oral). • Group X: Triton WR 1339 (300 mg/kg, intraperitoneal) followed by methanol extract of dried amla seed powder prepared as per example 9 (0.5 mg/kg, per oral). • Group XI: Triton WR 1339 (300 mg/kg, intraperitoneal) followed by water extract of dried amla fruit powder prepared as per example 11 (0.5 mg/kg, per oral). • Group XII: Triton WR 1339 (300 mg/kg, intraperitoneal) followed by methanol extract of dried amla fruit powder prepared as per example 12 (0.5 mg/kg, per oral). • Group XIII: Triton WR 1339 (300 mg/kg, intraperitoneal) followed by atorvastatin administration (10 mg/kg, per oral), on the same day.
The animals were deprived of food for next 24 hours but had free access to water ad libitum. After 24 hours of drug treatment, 2 ml of blood sample was collected from the retro orbital plexus. The blood was allowed to clot and then centrifuged at 3000 rpm for 10 min and the serum was carefully drawn and collected into separate tubes. The serum was analyzed for total cholesterol, triglycerides, high density lipoproteins (HDL), low density lipoproteins (LDL) and very low density lipoproteins (VLDL) levels using auto-analyzer.

Setting [1] is: 24 h after Triton i.p. + 10 mg/kg p.o.

Take `CC(C)c1c(C(=O)Nc2ccccc2)c(-c2ccccc2)c(-c2ccc(F)cc2)n1CC[C@@H](O)C[C@@H](O)CC(=O)O` [Atorvastatin]: under setting [1], the “HDL After” value is 35.1 mg/dL, the “LDL After” value is 49.39 mg/dL, the “TC After” value worked out at 124.54 mg/dL and the “TG After” value is 200.25 mg/dL. Under setting [1], the “VLDL After” value was determined as 40.06 mg/dL. For the same compound, for the setting “baseline, 10 mg/kg p.o. group”, the “HDL Before” value stood at 32.41 mg/dL, the “LDL Before” value came to 61.7 mg/dL, the “TC Before” value is 104.21 mg/dL and the “TG Before” value is 50.54 mg/dL. In addition, the “VLDL Before” value (baseline, 10 mg/kg p.o. group) came to 10 mg/dL.
